The values below come from patent US5208223A, “Phosphocholine derivative inhibitors of phospholipase A2” (American Cyanamid Company, priority 1992, dated 1993).

The target of experiment [1] is T1, porcine pancreatic PLA2 (Sus scrofa, UniProt P00592).
T1 construct: purchased Sigma
Nature of the experiment: PLA2 assay: in vitro porcine pancreatic phospholipase A2, preincubation of drug+enzyme, substrate 2 nM. Type of experiment: biochemical. The settings on record: preincubation, subs. con. 2; for IC50: read-out: IC50 (converted). The method, then:
(§1) Phospholipase A2 activity was measured by a radiochemical assay in which labeled synthetic phosphatidylcholine substrate is converted by porcine pancreatic PLA2 to free radiolabeled arachidonate and lyso PC. Radiolabeled arachidonate is extracted from the reaction mixture and separated from unreacted substrate by column chromatography or TLC. Radioactivity (cpm) in samples is quantitated by liquid scintillation counting. Specific details are as follows:
(§2) Labeled substrate(1-stearyl-2-^3 H-arachidonylphosphatidylcholine; Amersham, sp. act. 84 (uCi/mmole, 0.025 to 0.2 uCi/assay tube and unlabeled substrates (Avanti), in sufficient quantity to give 20,000 cpm to 50,000 cpm and 10 μM to 1,000 μM final concentration/assay tube are dried under a stream of nitrogen. The PLA2 and mPLA2 assays utilized a […] substrate concentration. The mHPLA2 and HPLA2 assays (vida infra) utilized a 10 μM substrate concentration and the SmPLA2 assay utilized a substrate concentration ranging from 100 to 1000 μm. The substrate is then redissolved in 0.1M tris-HCl buffer, pH 9.0 containing 10 mM CaCl2 and 10 mM Na taurocholate detergent. The mixture is sonicated in a Kontes Sonifier to yield a homogeneous dispersion. The "mixed" micellar substrate is clear. An aliquot is reserved for a cpm count (total substrate). The total reaction volume is 500 μL; siliconized glassware or plasticware is used throughout. Enzyme (Sigma, sp. act.>690 U/mg protein and preferably 900 U/mg protein) is diluted 1:750 or 1:1000 in 0.1M tris-HCl buffer, pH 9.0 (without Ca^++ and detergent). Enzyme dilution depends on substrate concentration and required enzyme concentration.
(§3) The substrate in buffer is kept on ice until the reaction is started. The reaction is started by adding 10 μL of diluted enzyme solution to 490 μL of micellar substrate solution. Samples are incubated in a 37° C. water bath for 15 minutes with gentle mixing. The reaction is terminated by the addition of 100 μL of 1M fresh trichloroacetic acid (TCA) solution and chilling the tubes on ice for 30 minutes.
(§4) Samples (600 μL) are extracted with 3 ml CHCl3 /MeOH (2:1) for thin layer chromatography or in hexane/ether (9:1) for column chromatography. The phases are separated by gentle centrifugation at 700 rpm×5'. The organic phase is recovered.
(§5) Labeled arachidonate extracted with CHCl3 /MeOH is separated on silica gel G TLC plates (Analtech). Twenty μL of a 2 mg/ml internal standard solution of arachidonic acid (Sigma) is combined with 2-3 ml of the organic phase. The entire mixture is dried under nitrogen and redissolved in 50 μL of CHCl3 /MeOH (2:1). A 20 μL sample is counted in 10 ml of Beckman Redi-solv HP and spotted on silica gel G plates. The solvent system used to develop the plate is CHCl3 /MeOH/13.5N NH3 /H2 O (70:30:4:1). Plates are developed in a glass chamber for 1-11/2 hours, air dried, and the spots visualized in an iodine vapor chamber. Standards of phosphatidylcholine, lyso PC, and arachidonic acid (Sigma) are made as 2 mg/ml stocks in CHCl3 /MeOH (2:1) and spotted on plates. Spots corresponding to arachidonate and phospholipid are scraped and counted in 10 ml Beckman Redi-Solv HP scintillation fluid.
(§6) Samples are extracted with hexane/ether and the upper organic phase recovered. An aliquot is applied to a Silicar CC4 (Malincrodt) column. Columns are prepared using 1 ml of a 1:1 slurry of silicar CC4 in hexane/ether in a Pasteur pipet (approx. 2 cm height). Columns are rinsed with 500 μL of hexane/ether before adding the sample (300-600 μL) to the column. Columns are eluted with a total of 6 ml of hexane/ether. The 6 ml sample is counted in 10 ml of Beckman Redi-Solv HP scintillation fluid.
or the phospholipase A2 assay, compounds are prepared as 1 mg/ml stock solutions in MeOH and diluted appropriately in PBS.

The target in experiment [2] is T1, porcine pancreatic PLA2. Description: MHPLA2 assay: in vitro porcine pancreatic phospholipase A2, mixed micelle design, [s]=10 μm. Type of experiment: biochemical. The settings on record: subs. con. 10. Here is the method: as §1, §2, §3, §4, §5, §6
or the phospholipase A2 assay, compounds are prepared as 1 mg/ml stock solutions in MeOH and diluted appropriately in PBS. […]

Where [3] appears, read: dose 10 μ/ml, read-out: % Inh. Avg.

Structures are written as SMILES. Counter-ions that a name gives are not always drawn. Like-named read-outs stand apart in the source and are kept apart here.

T1 sequence (P00592 23-146): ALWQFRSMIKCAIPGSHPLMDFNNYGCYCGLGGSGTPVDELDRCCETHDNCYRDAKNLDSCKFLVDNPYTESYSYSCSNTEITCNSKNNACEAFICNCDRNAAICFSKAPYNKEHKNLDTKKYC

By IC50 is commonly meant the point on the concentration scale where inhibition reaches its midpoint. `CCCCCCCCCCCCCCCCOCC(CC=O)COP(=O)([O-])OCC[N+](C)(C)C` (centres unmarked) [4-Hydroxy-N,N,N-trimethyl-7-(2-oxoethyl)-3,5,9-trioxa-4-phosphapentacosan-1-aminium, hydroxide, inner salt, 4-oxide]: the inhibition at 10 µg/mL came out at 47% on porcine pancreatic PLA2 [1] (dose 10 μ/ml, read-out: % Inh.) and 43% at porcine pancreatic PLA2 [1] (setting [3]). Further, at porcine pancreatic PLA2 [1] (dose 20 μ/ml, read-out: % Inh.), the inhibition at 20 µg/mL was 62%. Also, the IC50 on porcine pancreatic PLA2 [1] was 26 µM.

For `CCCCCCCCCCCCCCCCOCC(COP(=O)([O-])OCC[N+](C)(C)C)CC(O)CCCCCCCCCCCCCCCC` (single isomer, unassigned) [4-Hydroxy-7-(2-hydroxyoctadecyl)-N,N,N-trimethyl-3,5,9-triox] [4-Hydroxy-7-(2-hydroxyoctadecyl)-N,N,N-trimethyl-3,5,9-trioxa-4-phosphapentacosan-1-aminium, hydroxide, inner salt, 4-oxide isomer], the “% Inh.” value at porcine pancreatic PLA2 [1] (dose 10 μ/ml) is on record as 80%.

Turning to `CCCCCCCCCCCCCCCCCCOP(=O)(O)OCCOP(=O)([O-])OCC[N+](C)(C)C` [4,9-Dihydroxy-N,N,N-trimethyl-3,5,8,10-tetraoxa-4,9-diphosphaoctacosan-1-aminium, hydroxide, 4-(inner salt), 4,9-dioxide], the inhibition at 10 µg/mL on porcine pancreatic PLA2 [1] (setting [3]) was 40%.

In the case of `CCCCCCCCCCCCCCCCOCC(COP(=O)([O-])OCC[N+](C)(C)C)OP(=O)(O)OCCCCCCCCCCCCCCCC` (centres unmarked) [3,5,8,10-Tetraoxa-4,9-diphosphahexacosan-1-aminium, 7-[(hexa] [3,5,8,10-Tetraoxa-4,9-diphosphahexacosan-1-aminium, 7-[(hexadecyloxy)methyl]-4,9-dihydroxy-N,N,N-trimethyl-, hydroxide, 4-inner salt), 4,9-dioxide], the “% Inh.” value on porcine pancreatic PLA2 [2] (dose 10 μ/ml) and at porcine pancreatic PLA2 [2] (dose 25 μ/ml) was “STIM” each time.

In the case of `CCCCCCCCCCCCCCCCOCC(COP(=O)([O-])OCC[N+](C)(C)C)OP(=O)(OC)OCCCCCCCCCCCCCCCC` (centres unmarked) [3,5,8,10-Tetraoxa-4,9-diphosphahexacosan-1-aminium, 7-[(hexa] [3,5,8,10-Tetraoxa-4,9-diphosphahexacosan-1-aminium, 7-[(hexadecyloxy)methyl]-4-hydroxy-9-methoxy-N,N,N-trimethyl-, hydroxide, inner salt, 4,9-dioxide], the entries for the “% Inh. Avg.” value at porcine pancreatic PLA2 [1] (dose 10 μ/ml), on porcine pancreatic PLA2 [1] (dose 25 μ/ml) and on porcine pancreatic PLA2 [1] (dose 50 μ/ml) were 30%, 75% and 77%, respectively.

Take `CCCCCCCCCCCCCCCCOC[C@H](COP(=O)([O-])OCC[N+](C)(C)C)OP(=O)(OC)OCCCCCCCCCCCCCCCC` (single isomer, unassigned) [3,5,8,10-Tetraoxa-4,9-diphosphahexacosan-1-aminium, 7-[(hexa]: on porcine pancreatic PLA2 [1] (dose 20 μ/ml), the “% Inh. Avg.” value worked out at 28%.

In the case of `CCCCCCCCCCCCCCCCOCC(COP(=O)([O-])OCC[N+](C)(C)C)CC1(CCCCCCCCCCCCCCCC)CO1` (centres unmarked) [7-[(2-Hexadecyloxiranyl)methyl]-4-hydroxy-N,N,N-trimethyl-3,5,9-trioxa-4-phosphapentacosan-1-aminium, hydroxide, inner salt, 4-oxide], the inhibition at 10 µg/mL on porcine pancreatic PLA2 [1] (dose 10 μ/ml, read-out: % Inh.) amounted to 78%. On porcine pancreatic PLA2 [1] (dose 20 μ/ml, read-out: % Inh.), the inhibition at 20 µg/mL came to 75%. The IC50 at porcine pancreatic PLA2 [1] was 2.41 µM.

As to `CCCCCCCCCCCCCCCCOCC(COP(=O)([O-])OCC[N+](C)(C)C)CC(=O)CCCCCCCCCCCCCCCC` (centres unmarked) [4-Hydroxy-N,N,N-trimethyl-7-(2-oxooctadecyl)-3,5,9-trioxa-4-phosphapentacosan-1-aminium, hydroxide inner salt, 4 oxide], the inhibition at 10 µg/mL at porcine pancreatic PLA2 [1] (dose 10 μ/ml, read-out: % Inh.) was 59%; on porcine pancreatic PLA2 [1] (setting [3]), 60%. The inhibition at 20 µg/mL at porcine pancreatic PLA2 [1] (dose 20 μ/ml, read-out: % Inh.) came out at 62%. In addition, on porcine pancreatic PLA2 [1], the IC50 was 7.92 µM.

`C=C(CCCCCCCCCCCCCCCC)CC(COCCCCCCCCCCCCCCCC)COP(=O)([O-])OCC[N+](C)(C)C` (centres unmarked) [4-Hydroxy-N,N,N-trimethyl-7-(2-methyleneoctadecyl)-3,5,9-trioxa-4-phosphaoentacosan-1-aminium, hydroxide, inner salt, 4-oxide]: the inhibition at 10 µg/mL was determined as 59% at porcine pancreatic PLA2 [1] (dose 10 μ/ml, read-out: % Inh.) and 62% on porcine pancreatic PLA2 [1] (setting [3]). Further, the inhibition at 20 µg/mL on porcine pancreatic PLA2 [1] (dose 20 μ/ml, read-out: % Inh.) is 52%. For the same compound, the half-inhibitory concentration (IC50) on porcine pancreatic PLA2 [1] was 5.2 µM.

As to `CCCCCCCCCCCCCCCCOP(=O)(OC)OCCOP(=O)(O)OCCBr` (centres unmarked) [2-[[(2-Bromoethoxy)hydroxyphosphinyl]oxy]ethyl hexadecyl phosphoric acid, methyl ester], the inhibition at 10 µg/mL on porcine pancreatic PLA2 [1] (setting [3]) amounted to 21%.

Take `CCCCCCCCCCCCCCCCOCC(COP(=O)([O-])OCC[N+](C)(C)C)CC(O)CCCCCCCCCCCCCCCC` (single isomer, unassigned) [4-Hydroxy-7-(2-hydroxyoctadecyl)-N,N,N-trimethyl-3,5,9-trioxa-4-phosphapentacosan-1-aminium, hydroxide, inner salt, 4-oxide]: on porcine pancreatic PLA2 [1] (dose 10 μ/ml, read-out: % Inh.), the inhibition at 10 µg/mL is 80%. The inhibition at 20 µg/mL on porcine pancreatic PLA2 [1] (dose 20 μ/ml, read-out: % Inh.) worked out at 80%. For the same compound, the IC50 on porcine pancreatic PLA2 [1] is 2.18 µM.

For `CCCCCCCCCCCCCCCCOCC(COP(=O)([O-])OCC[N+](C)(C)C)OP(=O)(OC)OCCCCC` (single isomer, unassigned) [3,5,8,10-Tetraoxa-4,9-diphosphapentadecan-1-aminium, 7-[(hexadecyloxy)methyl]-4-hydroxy-9-methoxy-N,N,N-trimethyl-, hydroxide, 4-(inner salt), 4,9-dioxide, less polar isomer], the inhibition at 10 µg/mL on porcine pancreatic PLA2 [1] (dose 10 μ/ml, read-out: % Inh.) was found to be 76%. Moreover, at porcine pancreatic PLA2 [1] (dose 20 μ/ml, read-out: % Inh.), the inhibition at 20 µg/mL was determined as 83%. Also, on porcine pancreatic PLA2 [1], the IC50 was 8.05 µM.

As for `CCCCCCCCCCCCCCCCOC[C@@H](COP(=O)([O-])OCC[N+](C)(C)C)OP(=O)(OC)OCCCCCCCCCCCCCCCC` (single isomer, unassigned), the inhibition at 25 µg/mL at porcine pancreatic PLA2 [1] (dose 25 μ/ml, read-out: % Inh.) amounted to 91%. At porcine pancreatic PLA2 [1], the IC50 is 4.12 µM.

As to `CCCCCCCCCCCCCCCCOCC(COP(=O)([O-])OCC[N+](C)(C)C)CC(O)CCCCCCCCCCCCCCCC` (single isomer, unassigned) [4-Hydroxy-7-(2-hydroxyoctadecyl)-N,N,N-trimethyl-3,5,9-trioxa-4-phosphapentacosan-1-aminium, hydroxide, inner salt, 4-oxide isomer], the IC50 on porcine pancreatic PLA2 [1] is 2.32 µM.

`CCCCCCCCCCCCCCCCOCC(COP(=O)([O-])OCC[N+](C)(C)C)CC(C)(O)CCCCCCCCCCCCCCCC` (centres unmarked) [4-Hydroxy-7-(2-hydroxy-2-methyloctadecyl)-N,N,N-trimethyl-3,5,9-trioxa-4-phosphapentacosan-1-aminium, hydroxide, inner salt, 4-oxide]: the inhibition at 10 µg/mL at porcine pancreatic PLA2 [1] (dose 10 μ/ml, read-out: % Inh.) came to 65%; at porcine pancreatic PLA2 [1] (setting [3]) it was 64%. Further, on porcine pancreatic PLA2 [1] (dose 20 μ/ml, read-out: % Inh.), the inhibition at 20 µg/mL was found to be 66%. Moreover, the IC50 at porcine pancreatic PLA2 [1] is 7.89 µM.

With `CCCCCCCCCCCCCCCCOP(=O)(O)OCCOP(=O)([O-])OCC[N+](C)(C)C` [3,9-Dihydroxy-N,N,N-trimethyl-3,5,8,10-tetraoxa-4,9-diphosphahexacosan-1-aminium, hydroxide, 4-(inner salt) 4,9-dioxide], the inhibition at 10 µg/mL on porcine pancreatic PLA2 [1] (setting [3]) is 20%.

Consider `CCCCCCCCCCCCCCCCOC[C@H](COP(=O)([O-])OCC[N+](C)(C)C)OP(=O)(OC)OCCCCCCCCCCCCCCCC` (single isomer, unassigned), for which the inhibition at 10 µg/mL on porcine pancreatic PLA2 [1] (setting [3]) amounted to 22%. In addition, on porcine pancreatic PLA2 [1] (dose 20 μ/ml, read-out: % Inh. Avg.), the inhibition at 20 µg/mL stood at 34%. Further, at porcine pancreatic PLA2 [1], the IC50 was 17.1 µM.
